# Patent publication US8173788B2, “Peptide having ability to activate cancer-related gene” (priority 2005, dated 2012)
# Where no end group is shown, it is not given here.
# What was measured:
# [1] = system: human normal peripheral blood monocyte; assay: Influence of the artificially synthesized peptide on normal cell genes: coculture 7 hr, DNA chip system (Clontech), about 55000 human genes (Table 4); assay type: cell-based; conditions: monocytes, 7 hr
# Description: (a) The peptide obtained in Example 3 was added to a human normal peripheral blood monocyte culture system (10 to 100 μg peptide/1×10^6 to 1×10^7 monocytes), and they were cocultured for 7 hr. Then, mRNA was extracted from the monocytes and was applied to analysis for up-regulation and down-regulation in respect to about 55000 human genes by using DNA chip system (Clontech).
# Normal lymphocytes = assay: Exhaustive gene analysis of 55000 genes by DNA chip system (Codelink System); assay type: cell-based; conditions: normal lymphocytes treated vs untreated, Codelink slide 55000 genes
# Description: Characteristics of the peptide of the present invention were clarified by conducting the analysis described below in order to examine effects of the peptide on gene expression of normal cells.
# Normal lymphocytes were treated with the peptide of the present invention as in Examples 4 and 5, and the gene expression was compared to that of untreated lymphocytes by using a DNA chip system (Codelink System). In this examination, cRNA derived from bacteria was used as a positive control. Total RNA was extracted by using the QIAGEN RNA extraction kit used in Example 5. The total RNA (5 to 10 μg) was subjected to reverse transcription using an oligo-dT primer having a T7 RNA polymerase promoter region as a reverse primer to generate a pool of cDNAs complementary to the mRNAs. The condition for the reverse transcription was the same as that in Example 5. […] The amount of the cRNA was measured with a spectrophotometer to confirm at least 10 μg of the cRNA. […]
# The hybridization chamber was removed and the plate was washed at 46° C. for 1 hr. The hybridization was detected with Cy5-streptavidin (1:500 dilution, at room temperature for 30 min). […]
# (5) The result was analyzed by exclusive software for the Codelink analysis. […]
# [2] = system: peripheral blood monocytes; assay: Effect of the artificially synthesized peptide on total mRNA amount of peripheral blood monocytes; assay type: cell-based, human; design: reduction ratio: concentration or dose not given beside the values; conditions: peptide 7 hr; for post total RNA: 1 × 10^7 monocytes
# Description: (b) The peptide obtained in Example 3 was added to a culture medium (10 to 100 μg peptide/1×10^7 monocytes) for human normal peripheral blood monocytes extracted from subjects shown in Table 5 below, and they were cocultured for 7 hr. Then, total mRNA was extracted from the monocytes, and the amount of the total mRNA was measured and compared to that of the total mRNA before the treatment with the peptide.
# [3] = system: rejection in skin transplantation; assay: Skin transplantation test, C57Black/6N skin to back of BALB/c mouse; assay type: in vivo; conditions: 50 μg peptide/0.1 ml/mouse subcutaneously
# Description: Then, the cellular immunity-inhibition activity of the peptide was examined from the viewpoint of activity for preventing rejection in skin transplantation.
# The peptide of the present invention was administered to mice who have received skin transplantation according to the schedule shown in Table 6.
# Skin fibroblast cell = assay: RT-PCR gene pattern change after 7 hr peptide treatment, skin fibroblast cell; assay type: cell-based; conditions: 11-amino acid primer (full sequence), skin fibroblast sample
# Description: (§1) In order to examine influences at a gene level of the peptide on normal cells, RT-PCR was performed by adding the peptide artificially synthesized in Example 3 to the normal cells.
# (§2) (1) Normal cells were treated with the artificially synthesized peptide for 7 hr as follows:
# (§3) Then, total RNA was extracted from the above-treated normal cells, untreated normal cells, and squamous-cell carcinoma cells by using an RNA extraction kit (QIAGEN). The numbers of the treated cells and the untreated cells were the same.
# (§4) Reverse transcription was performed by using 30 μg of each extracted total RNA to generate cDNA pools.
# (§5) PCR was conducted using each of the cDNA pools as templates.
# (§6) The condition for the PCR was as follows:
# (§7) (2) Each of the PCR products was applied to electrophoresis and detected by using a fluorescence label.
# Kidney mesangium cell = assay: RT-PCR gene pattern change after 7 hr peptide treatment, kidney mesangium cell; assay type: cell-based; conditions: 11-amino acid primer (full sequence), kidney mesangium sample
# Description: as §1, §2, §3, §4, §5, §6, §7
# [4] = system: peripheral blood monocytes; assay: RT-PCR gene pattern change after 7 hr peptide treatment, peripheral blood monocytes; assay type: cell-based, human
# Description: as §1, §2, §3, §4, §5, §6, §7
# [5] = system: Pancreatic epithelial cells; assay: RT-PCR gene pattern change after 7 hr peptide treatment, pancreatic epithelial cells; assay type: cell-based; conditions: pancreatic epithelial sample
# Description: as §1, §2, §3, §4, §5, §6, §7
# [6] = subject eight, healthy subject (smoker)
# [7] = subject five, healthy subject (side-stream smoke)
# [8] = subject four, cancer patient received chemotherapy and radiotherapy
# [9] = subject one, healthy subject (side-stream smoke)
# [10] = subject seven, healthy subject (smoker)
# [11] = subject two, healthy subject (side-stream smoke)
sequence,measurement,setting,value
QPQFGRRMESK [artificially synthesized peptide],Expression of TNF,[1],not enhanced
same,expression of cell growth factor such as a platelet-derived growth factor,[1],enhanced
same,expression of genes relating to anti-tumor immunity,[1],highly suppressed
same,expression of most of important factors as an operating factor for the humoral immunity mechanism,[1],enhanced
same,"Expression of a gene relating to inhibition of metastasis of breast cancer, suppressed to",[1]; fraction of baseline,1/60
same,"expression of RAS suppressor protein gene, suppressed to",[1]; fraction of baseline,1/43
same,"expression of a gene relating to inhibition of leukemia, suppressed to",[1]; fraction of baseline,1/43
same,expression status of cancer-related genes,Normal lymphocytes,Cancer-inducing expression status of cancer-related genes was observed
same,post total RNA,"[2]; subject eight, healthy subject (smoker), pre 45.875 μg/ml",0.958 µg/mL
same,post/pre,[2]; [6],2%
same,reduction ratio,[2]; [6],98%
same,post total RNA,"[2]; subject five, healthy subject (side-stream smoke), pre 58.076 μg/ml",19.551 µg/mL
same,post/pre,[2]; [7],33.6%
same,reduction ratio,[2]; [7],66.4%
same,post total RNA,"[2]; subject four, cancer patient received chemotherapy and radiotherapy, pre 8.078 μg/ml",1.757 µg/mL
same,post/pre,[2]; [8],21.7%
same,reduction ratio,[2]; [8],78.3%
same,post total RNA,"[2]; subject one, healthy subject (side-stream smoke), pre 69.622 μg/ml",7.735 µg/mL
same,post/pre,[2]; [9],11.1%
same,reduction ratio,[2]; [9],88.9%
same,post total RNA,"[2]; subject seven, healthy subject (smoker), pre 20.779 μg/ml",9.188 µg/mL
same,post/pre,[2]; [10],44.2%
same,reduction ratio,[2]; [10],55.8%
same,post total RNA,"[2]; subject six, healthy subject, pre 52.318 μg/ml",17.681 µg/mL
same,post/pre,"[2]; subject six, healthy subject",33.7%
same,reduction ratio,"[2]; subject six, healthy subject",66.3%
same,post total RNA,"[2]; subject three, healthy subject, pre 61.145 μg/ml",16.562 µg/mL
same,post/pre,"[2]; subject three, healthy subject",27%
same,reduction ratio,"[2]; subject three, healthy subject",73%
same,post total RNA,"[2]; subject two, healthy subject (side-stream smoke), pre 66.804 μg/ml",14.742 µg/mL
same,post/pre,[2]; [11],22%
same,reduction ratio,[2]; [11],78%
same,delay of skin rejection versus control,[3]; intermittent,5 days
same,rejection in skin transplantation / skin graft survival,[3]; intermittent,the rejection in the skin transplantation was suppressed and skin graft survival was prolonged
same,"skin rejection occurred, days after the transplantation","[3]; intermittent, 6 mice, control 7 days",12 days
same,survival of the transplanted skin of one mouse after the transplantation,[3]; one mouse,14 days
same,gene band pattern by PCR before and after peptide treatment,Skin fibroblast cell,a difference in the band patterns was observed
same,gene band pattern by PCR before and after peptide treatment,Kidney mesangium cell,a difference in a position having a high concentration was observed
same,gene band pattern by PCR before and after peptide treatment,"[4]; 11-amino acid primer (full sequence), peripheral blood sample (H.S.), 7 hr",a difference in the band patterns was observed
same,gene pattern change by PCR after peptide treatment,"[4]; 11-amino acid primer, sample of lanes 2 and 3 of FIG. 2B, healthy young man in twenties",gene mutation was hardly induced
same,gene band pattern by PCR before and after peptide treatment,[5]; 7-amino acid primer (partial sequence),a difference in the band patterns was observed
same,gene band pattern by PCR before and after peptide treatment,[5]; 11-amino acid primer (full sequence),a difference in a position having a high concentration was observed
